Among the data in patent US20160296499A1, “Spiroindoline Antiparasitic Derivatives” (ZOETIS SERVICES LLC, priority 2013, published 2016) are Ki and minimal effective concentration values, retold here.

Broadly, the Ki is the dissociation constant of the complex between target and ligand, obtained from inhibition or displacement.

Each structure is given as a SMILES string. Like-named read-outs stand apart in the source and are kept apart here.

For experiment [1], the target named is T1, bovine vesicular acetylcholine transporter (VAChT) (Bos taurus, UniProt E1BK36).
T1 sequence (E1BK36 1-524): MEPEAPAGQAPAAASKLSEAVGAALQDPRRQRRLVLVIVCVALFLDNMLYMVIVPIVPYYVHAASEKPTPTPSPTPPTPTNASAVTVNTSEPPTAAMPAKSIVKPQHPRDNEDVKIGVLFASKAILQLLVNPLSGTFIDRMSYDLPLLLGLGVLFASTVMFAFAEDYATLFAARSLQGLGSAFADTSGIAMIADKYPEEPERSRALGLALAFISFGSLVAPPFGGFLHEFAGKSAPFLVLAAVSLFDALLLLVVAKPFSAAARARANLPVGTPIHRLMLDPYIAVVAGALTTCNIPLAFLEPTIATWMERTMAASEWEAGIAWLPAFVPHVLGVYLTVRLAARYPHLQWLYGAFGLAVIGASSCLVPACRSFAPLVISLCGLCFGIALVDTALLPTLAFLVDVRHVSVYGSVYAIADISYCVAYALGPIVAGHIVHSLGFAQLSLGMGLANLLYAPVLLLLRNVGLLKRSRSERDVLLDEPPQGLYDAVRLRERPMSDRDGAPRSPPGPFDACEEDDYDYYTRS
Briefly: Radioligand Binding Assay. The following applies: Bovine binding Ki, CHO-K1 membranes with recombinant bovine VAChT, [3H]Compound X6 0.3 nM.

In a further experiment the test system is Haemonchus contortus L3. Description: Haemonchus contortus, Larvae Stage 3 (HcL3) In Vitro Assay. As to conditions: Haemonchus contortus.
Experiment [2] concerns Dirofilaria immitis microfilariae. Description: Dirofilaria immitis, Microfilariae (DiMF) In Vitro Assay. As to conditions: Dirofilaria immitis.
The mark [3] stands for this setting: 96 h, read-out: HcL3 MEC, Minimal Effective Concentration whereby worm motility is inhibited by approximately 70%, 37° C., tested 0.001-100 μM.
Setting [4] is: 72 h, read-out: Di MF, MEC, decrease in microfilariae motility by visual assessment, curve starting at 100 μM.

Regarding `O=C(NCc1ccnc(Cl)c1)N1CC2(CCN(C/C=C/c3ccc(Cl)c(Cl)c3)CC2)c2c(Br)cccc21` [Example 102, (E)-4-bromo-N-((2-chloropyridin-4-yl)methyl)-1′-(3-(3,4-dichlorophenyl)allyl)spiro[indoline-3,4′-piperidine]-1-carboxamide], in experiment [1], the Ki came out at 144 nM. Further, the minimal effective concentration came out at 5.3 µM in the experiment on Haemonchus contortus L3 (setting [3]) and 10 µM in experiment [2] (setting [4]).

`O=C(NCc1ccnc(F)c1)N1CC2(CCN(C/C=C/c3ccc(Cl)c(Cl)c3)CC2)c2c(Br)cccc21` [Example 103, 4-bromo-1′-[(E)-3-(3,4-dichlorophenyl)allyl]-N-[(2-fluoro-4-pyridyl)methyl]spiro[indoline-3,4′-piperidine]-1-carboxamide]: the Ki in experiment [1] was determined as 466 nM. Further, the results for the minimal effective concentration (with Haemonchus contortus L3 (setting [3]); in experiment [2] (setting [4])) were 3.3 µM and 5.7 µM, respectively.

Regarding `O=C(NCc1ccnc(F)c1)N1CC2(CCN(C/C=C/c3ccc(Cl)c(Cl)c3)CC2)c2cc(Br)ccc21` [Example 104, 5-bromo-1′-[(E)-3-(3,4-dichlorophenyl)allyl]-N-[(2-fluoro-4-pyridyl)methyl]spiro[indoline-3,4′-piperidine]-1-carboxamide], the inhibitory constant (Ki) in experiment [1] was 43.7 nM. The minimal effective concentration in the experiment on Haemonchus contortus L3 (96 hours, 37° C., read-out: HcL3 MEC) was found to be 3.3 µM; in experiment [2] (72 hours, read-out: Di MF), 10 µM.

As for `O=C(NCc1ccnc(F)c1)N1CC2(CCN(C/C=C/c3ccc(Cl)cc3)CC2)c2cc(Br)ccc21` [Example 105, 5-bromo-1′-[(E)-3-(4-chlorophenyl)allyl]-N-[(2-fluoro-4-pyridyl)methyl]spiro[indoline-3,4′-piperidine]-1-carboxamide], in experiment [1], the Ki turned out to be 32.2 nM. Further, the minimal effective concentration (in the experiment on Haemonchus contortus L3 (setting [3]); in experiment [2] (setting [4])) was 3.3 µM each time.

Regarding `O=C(NCc1ccnc(F)c1)N1CC2(CCN(C/C=C/c3ccc(F)cc3)CC2)c2cc(Br)ccc21` [Example 106, 5-bromo-1′-[(E)-3-(4-fluorophenyl)allyl]-N-[(2-fluoro-4-pyridyl)methyl]spiro[indoline-3,4′-piperidine]-1-carboxamide], the Ki in experiment [1] was 72.7 nM. For the same molecule, the minimal effective concentration in the experiment on Haemonchus contortus L3 (setting [3]) came out at 3.3 µM; in experiment [2] (setting [4]), 10 µM.

In the case of `O=C(NCc1ccnc(F)c1)N1CC2(CCN(C/C=C/c3ccc(C(F)(F)F)cc3)CC2)c2cc(Br)ccc21` [Example 107, 5-bromo-N-[(2-fluoro-4-pyridyl)methyl]-1′-[(E)-3-[4-(trifluoromethyl)phenyl]allyl]spiro[indoline-3,4′-piperidine]-1-carboxamide], the Ki in experiment [1] stood at 486 nM. Besides, the minimal effective concentration (with Haemonchus contortus L3 (setting [3]); in experiment [2] (setting [4])) was 3.3 µM throughout.

As for `N#Cc1cccc(-c2ccc3c(c2)C2(CCN(C/C=C/c4ccc(Cl)c(Cl)c4)CC2)CN3C(=O)NCc2ccnc(F)c2)c1` [Example 108, 5-(3-cyanophenyl)-1′-[(E)-3-(3,4-dichlorophenyl)allyl]-N-[(2-fluoro-4-pyridyl)methyl]spiro[indoline-3,4′-piperidine]-1-carboxamide], the Ki in experiment [1] was determined as 32600 nM. In addition, the minimal effective concentration worked out at 100 µM in the experiment with Haemonchus contortus L3 (setting [3]) and 3.3 µM in experiment [2] (setting [4]).

As to `N#Cc1ccc(-c2ccc3c(c2)C2(CCN(C/C=C/c4ccc(Cl)cc4)CC2)CN3C(=O)NCc2ccnc(F)c2)cn1` [Example 109, 1′-[(E)-3-(4-chlorophenyl)allyl]-5-(6-cyano-3-pyridyl)-N-[(2-fluoro-4-pyridyl)methyl]spiro[indoline-3,4′-piperidine]-1-carboxamide], the inhibition constant (Ki) in experiment [1] was 50.8 nM. Besides, the values for the minimal effective concentration (in the experiment on Haemonchus contortus L3 (setting [3]); in experiment [2] (setting [4])) were 3.3 µM and 1.8 µM, respectively.

For `O=C(NCc1ccnc(F)c1)N1CC2(CCN(C/C=C/c3ccc(Cl)c(Cl)c3)CC2)c2cc(-c3cccnc3)ccc21` [Example 110, 1′-[(E)-3-(3,4-dichlorophenyl)allyl]-N-[(2-fluoro-4-pyridyl)methyl]-5-(3-pyridyl)spiro[indoline-3,4′-piperidine]-1-carboxamide], in experiment [1], the Ki amounted to 7820 nM. The minimal effective concentration in the experiment on Haemonchus contortus L3 (setting [3]) turned out to be 69.1 µM; in experiment [2] (setting [4]), 3.3 µM.

As for `O=C(NCc1ccnc(F)c1)N1CC2(CCN(C/C=C/c3ccc(Cl)c(Cl)c3)CC2)c2cc(-c3cn[nH]c3)ccc21` [Example 111, 1′-[(E)-3-(3,4-dichlorophenyl)allyl]-N-[(2-fluoro-4-pyridyl)methyl]-5-(1H-pyrazol-4-yl)spiro[indoline-3,4′-piperidine]-1-carboxamide], in experiment [1], the Ki was 3380 nM. Also, the minimal effective concentration in the experiment on Haemonchus contortus L3 (setting [3]) is 100 µM; in experiment [2] (setting [4]), 10 µM.

`O=C(NCc1ccnc(F)c1)N1CC2(CCN(C/C=C/c3ccc(Cl)c(Cl)c3)CC2)c2cc(-c3cncnc3)ccc21` [Example 112, 1′-[(E)-3-(3,4-dichlorophenyl)allyl]-N-[(2-fluoro-4-pyridyl)methyl]-5-pyrimidin-5-yl-spiro[indoline-3,4′-piperidine]-1-carboxamide]: in experiment [1], the inhibitory constant (Ki) is 3340 nM. Besides, the minimal effective concentration with Haemonchus contortus L3 (setting [3]) is 100 µM; in experiment [2] (setting [4]), 4.4 µM.

In the case of `N#Cc1ccc2c(c1)C1(CCN(C/C=C/c3ccc(Cl)c(Cl)c3)CC1)CN2C(=O)NCc1ccnc(F)c1` [Example 113, 5-cyano-1′-[(E)-3-(3,4-dichlorophenyl)allyl]-N-[(2-fluoro-4-pyridyl)methyl]spiro[indoline-3,4′-piperidine]-1-carboxamide], in experiment [1], the Ki is 66.8 nM. Also, the minimal effective concentration in the experiment on Haemonchus contortus L3 (setting [3]) was determined as 1 µM; in experiment [2] (setting [4]) it was 2.4 µM.

As for `Cc1cccc2c1C1(CCN(C/C=C/c3ccc(Cl)c(Cl)c3)CC1)CN2C(=O)NCc1ccnc(F)c1` [Example 114, 1′-[(E)-3-(3,4-dichlorophenyl)allyl]-N-[(2-fluoro-4-pyridyl)methyl]-4-methyl-spiro[indoline-3,4′-piperidine]-1-carboxamide], the Ki in experiment [1] turned out to be 241 nM. Moreover, the minimal effective concentration in the experiment with Haemonchus contortus L3 (setting [3]) was found to be 5.7 µM; in experiment [2] (setting [4]), 10 µM.

Consider `N#Cc1cncc(-c2ccc3c(c2)C2(CCN(C/C=C/c4ccc(Cl)cc4)CC2)CN3C(=O)NCc2ccnc(F)c2)c1` [Example 115, 1′-[(E)-3-(4-chlorophenyl)allyl]-5-(5-cyano-3-pyridyl)-N-[(2-fluoro-4-pyridyl)methyl]spiro[indoline-3,4′-piperidine]-1-carboxamide], for which the Ki in experiment [1] is 3930 nM. Further, the minimal effective concentration worked out at 100 µM in the experiment on Haemonchus contortus L3 (setting [3]) and 7.6 µM in experiment [2] (setting [4]).

As for `N#Cc1ccc(-c2ccc3c(c2)C2(CCN(C/C=C/c4ccc(Cl)c(Cl)c4)CC2)CN3C(=O)NCc2ccnc(F)c2)cn1` [Example 116, 5-(6-cyano-3-pyridyl)-1′-[(E)-3-(3,4-dichlorophenyl)allyl]-N-[(2-fluoro-4-pyridyl)methyl]spiro[indoline-3,4′-piperidine]-1-carboxamide], the inhibitory constant (Ki) in experiment [1] is 58.5 nM. Besides, the figures for the minimal effective concentration (in the experiment with Haemonchus contortus L3 (setting [3]); in experiment [2] (setting [4])) were 5 µM and 4 µM, respectively.

As for `COc1ccc2ccc(CN3CCC4(CC3)CN(C(=O)NCc3ccnc(F)c3)c3ccc(C#N)cc34)c(C)c2n1` [Example 117, 5-cyano-N-[(2-fluoro-4-pyridyl)methyl]-1′-[(2-methoxy-8-methyl-7-quinolyl)methyl]spiro[indoline-3,4′-piperidine]-1-carboxamide], the Ki in experiment [1] was found to be 191 nM. In addition, the minimal effective concentration (in the experiment with Haemonchus contortus L3 (setting [3]); in experiment [2] (setting [4])) was 10 µM in each case.
